Measurements as given in patent publication US11178871B2, “Herbicidal pyrimidine compounds” (BASF SE, priority 2016, dated 2021).

Columns and labels:
Format in all cases: in vivo
Alopecurus myosuroides = assay: greenhouse test, post-emergence treatment, ALOMY; conditions: post-emergence
In short: (§1)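 Plants grown in loamy sand (~3.0% humus) to 3–15 cm height, then sprayed post-emergence with active ingredient suspended or emulsified in water. Kept at 10–25 °C or 20–35 °C by species for 2–4 weeks; damage scored visually 0–100 (100 = complete destruction of aerial parts, 0 = normal growth).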

Apera spica-venti = assay: greenhouse test, pre-emergence treatment, APESV
In short: (§2)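 Damage scored visually on a 0-100 scale (100 = no emergence or complete destruction of aerial parts, 0 = normal growth) after 2 to 4 weeks. Treatment was applied pre-emergence as an aqueous suspension or emulsion immediately after sowing in loamy sand (approx. 3.0% humus).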

Echinocloa crus-galli [1] = assay: greenhouse test, pre-emergence treatment, ECHCG
In short: as §2

Setaria viridis = assay: greenhouse test, post-emergence treatment, SETVI
Excerpt: The culture containers used were plastic flowerpots containing loamy sand with approximately 3.0% of humus as the substrate. The seeds of the test plants were sown separately for each species.
For the post-emergence treatment, the test plants were first grown to a height of 3 to 15 cm, depending on the plant habit, and only then treated with the active ingredients which had been suspended or emulsified in water. For this purpose, the test plants were either sown directly and grown in the same containers, or they were first grown separately as seedlings and transplanted into the test containers a few days prior to treatment.
Depending on the species, the plants were kept at 10-25° C. or 20-35° C., respectively.
The test period extended over 2 to 4 weeks. During this time, the plants were tended, and their response to the individual treatments was evaluated.
Evaluation was carried out using a scale from 0 to 100. 100 means no emergence of the plants, or complete destruction of at least the aerial moieties, and 0 means no damage, or normal course of growth. A good herbicidal activity is given at values of at least 70 and a very good herbicidal activity is given at values of at least 85.
The plants used in the greenhouse experiments were of the following species: […]

Avena fatua = assay: greenhouse test, post-emergence treatment, AVEFA
In short: as §1

Echinocloa crus-galli [2] = assay: greenhouse test, post-emergence treatment, ECHCG; conditions: post-emergence
In short: as §1

With `Clc1ccccc1-c1cnc(C2CC2)nc1-c1ccc(Br)o1` [Ex. 31] the herbicidal activity (Alopecurus myosuroides; 2000 g/ha) was “very good (a very good herbicidal activity is given at values of at least 85)”, the herbicidal activity (Apera spica-venti; 2000 g/ha) was “very good (a very good herbicidal activity is given at values of at least 85)” and the herbicidal activity (Echinocloa crus-galli [1]; 2000 g/ha) was “very good (a very good herbicidal activity is given at values of at least 85)”. For the same molecule, the herbicidal activity (Setaria viridis; 2000 g/ha) was “very good (a very good herbicidal activity is given at values of at least 85)”.
With `Cc1nc(C(C)Br)ncc1-c1ccccc1Cl` (stereo not shown) [Ex. 52] the herbicidal activity (Setaria viridis; 1000 g/ha) was “very good (a very good herbicidal activity is given at values of at least 85)”.
`Cc1occc1-c1nc(C2CC2)ncc1-c1ccccc1Cl` [Ex. 58] was tested, and the herbicidal activity (Avena fatua; 1000 g/ha) was “good (A good herbicidal activity is given at values of at least 70)” and the herbicidal activity (Setaria viridis; 1000 g/ha) was “very good (a very good herbicidal activity is given at values of at least 85)”.
`Clc1ccccc1-c1cnc(C2CC2)nc1-c1ccco1` [Ex. 24] was tested, and the herbicidal activity (Apera spica-venti; 2000 g/ha) was “very good (a very good herbicidal activity is given at values of at least 85)”, the herbicidal activity (Echinocloa crus-galli [1]; 2000 g/ha) was “very good (a very good herbicidal activity is given at values of at least 85)” and the herbicidal activity (Setaria viridis; 2000 g/ha) was “very good (a very good herbicidal activity is given at values of at least 85)”. The herbicidal activity (Echinocloa crus-galli [2]; 2000 g/ha) was “very good (a very good herbicidal activity is given at values of at least 85)”.
`CCc1ocnc1-c1nc(C2CC2)ncc1-c1ccccc1Cl` [Ex. 282] was tested, and the herbicidal activity (Alopecurus myosuroides; 2000 g/ha) was “very good (a very good herbicidal activity is given at values of at least 85)”, the herbicidal activity (Apera spica-venti; 2000 g/ha) was “very good (a very good herbicidal activity is given at values of at least 85)” and the herbicidal activity (Avena fatua; 2000 g/ha) was “very good (a very good herbicidal activity is given at values of at least 85)”. The herbicidal activity (Echinocloa crus-galli [1]; 2000 g/ha) was “very good (a very good herbicidal activity is given at values of at least 85)” and the herbicidal activity (Setaria viridis; 2000 g/ha) was “very good (a very good herbicidal activity is given at values of at least 85)”.
`Clc1ccccc1-c1cnc(C2CC2)nc1C=C1CCOCC1` [Ex. 92] was tested, and the herbicidal activity (Alopecurus myosuroides; 2000 g/ha) was “good (A good herbicidal activity is given at values of at least 70)”, the herbicidal activity (Setaria viridis; 2000 g/ha) was “good (A good herbicidal activity is given at values of at least 70)” and the herbicidal activity (Echinocloa crus-galli [2]; 2000 g/ha) was “good (A good herbicidal activity is given at values of at least 70)”.
In the case of `Clc1ccccc1-c1cnc(C2CC2)nc1CC1CCC1` [Ex. 98], the herbicidal activity (Setaria viridis; 500 g/ha) is reported as “good (A good herbicidal activity is given at values of at least 70)”.
For `Ic1ccccc1-c1cnc(C2CC2)nc1-c1ccco1` [Ex. 76], the herbicidal activity (Alopecurus myosuroides; 1000 g/ha) was “good (A good herbicidal activity is given at values of at least 70)” and the herbicidal activity (Setaria viridis; 1000 g/ha) was “very good (a very good herbicidal activity is given at values of at least 85)”.
With `CC(C)(C)CCc1nc(C2CC2)ncc1-c1ccccc1Cl` [Ex. 103] the herbicidal activity (Setaria viridis; 2000 g/ha) was “very good (a very good herbicidal activity is given at values of at least 85)”.
With `Cc1nc(-c2nc(C3CC3)ncc2-c2ccccc2Cl)c(C)o1` [Ex. 277] the herbicidal activity (Alopecurus myosuroides; 1000 g/ha) was “very good (a very good herbicidal activity is given at values of at least 85)”, the herbicidal activity (Apera spica-venti; 1000 g/ha) was “very good (a very good herbicidal activity is given at values of at least 85)” and the herbicidal activity (Echinocloa crus-galli [1]; 1000 g/ha) was “very good (a very good herbicidal activity is given at values of at least 85)”. The herbicidal activity (Setaria viridis; 1000 g/ha) was “very good (a very good herbicidal activity is given at values of at least 85)” and the herbicidal activity (Echinocloa crus-galli [2]; 1000 g/ha) was “very good (a very good herbicidal activity is given at values of at least 85)”.
With `O=P(O)(O)C(Cc1nc(C2CC2)ncc1-c1ccccc1Cl)P(=O)(O)O` [Ex. 90] the herbicidal activity (Setaria viridis; 2000 g/ha) was “very good (a very good herbicidal activity is given at values of at least 85)”.
`CCc1nc(C)c(-c2nc(C3CC3)ncc2-c2ccccc2Cl)o1` [Ex. 272] was tested, and the herbicidal activity (Alopecurus myosuroides; 2000 g/ha) was “very good (a very good herbicidal activity is given at values of at least 85)”, the herbicidal activity (Apera spica-venti; 2000 g/ha) was “very good (a very good herbicidal activity is given at values of at least 85)” and the herbicidal activity (Avena fatua; 2000 g/ha) was “very good (a very good herbicidal activity is given at values of at least 85)”. For the same molecule, the herbicidal activity (Echinocloa crus-galli [1]; 2000 g/ha) was “very good (a very good herbicidal activity is given at values of at least 85)” and the herbicidal activity (Setaria viridis; 2000 g/ha) was “very good (a very good herbicidal activity is given at values of at least 85)”.
With `Cc1cc(-c2nc(C3CC3)ncc2-c2ccccc2Br)co1` [Ex. 271] the herbicidal activity (Setaria viridis; 1000 g/ha) was “very good (a very good herbicidal activity is given at values of at least 85)” and the herbicidal activity (Echinocloa crus-galli [2]; 1000 g/ha) was “good (A good herbicidal activity is given at values of at least 70)”.
For `OC1(Cc2nc(C3CC3)ncc2-c2ccccc2Cl)CCCC1` [Ex. 74], the herbicidal activity (Setaria viridis; 2000 g/ha) was “very good (a very good herbicidal activity is given at values of at least 85)”.
For `Clc1ccc(-c2nc(C3CC3)ncc2-c2ccccc2Cl)s1` [Ex. 119], the herbicidal activity (Alopecurus myosuroides; 1000 g/ha) was “very good (a very good herbicidal activity is given at values of at least 85)” and the herbicidal activity (Setaria viridis; 1000 g/ha) was “good (A good herbicidal activity is given at values of at least 70)”.
In the case of `COC(=O)COC(C)c1nc(C2CC2)ncc1-c1ccccc1Cl` (stereo not shown) [Ex. 141], the herbicidal activity (Setaria viridis; 1000 g/ha) is reported as “good (A good herbicidal activity is given at values of at least 70)”.
In the case of `Cc1ccoc1-c1nc(C2CC2)ncc1-c1ccccc1Cl` [Ex. 30], the herbicidal activity (Alopecurus myosuroides; 2000 g/ha) is reported as “very good (a very good herbicidal activity is given at values of at least 85)”, the herbicidal activity (Apera spica-venti; 2000 g/ha) is reported as “very good (a very good herbicidal activity is given at values of at least 85)” and the herbicidal activity (Echinocloa crus-galli [1]; 2000 g/ha) is reported as “very good (a very good herbicidal activity is given at values of at least 85)”. For the same molecule, the herbicidal activity (Setaria viridis; 2000 g/ha) was “very good (a very good herbicidal activity is given at values of at least 85)”.
With `O=[N+]([O-])c1ccccc1-c1cnc(C2CC2)nc1-c1cccs1` [Ex. 38] the herbicidal activity (Setaria viridis; 1000 g/ha) was “good (A good herbicidal activity is given at values of at least 70)”.
In the case of `Fc1cccc(-c2cnc(C3CC3)nc2-c2ccco2)c1Cl` [Ex. 33], the herbicidal activity (Setaria viridis; 2000 g/ha) is reported as “good (A good herbicidal activity is given at values of at least 70)”.
In the case of `CC(C)=Cc1nc(C2CC2)ncc1-c1ccccc1Cl` [Ex. 70], the herbicidal activity (Alopecurus myosuroides; 2000 g/ha) is reported as “very good (a very good herbicidal activity is given at values of at least 85)” and the herbicidal activity (Setaria viridis; 2000 g/ha) is reported as “very good (a very good herbicidal activity is given at values of at least 85)”.
For `Cc1nc(C)c(-c2nc(C3CC3)ncc2-c2cc(Br)ccc2Br)o1` [Ex. 292], the herbicidal activity (Alopecurus myosuroides; 1000 g/ha) was “good (A good herbicidal activity is given at values of at least 70)”, the herbicidal activity (Apera spica-venti; 1000 g/ha) was “very good (a very good herbicidal activity is given at values of at least 85)” and the herbicidal activity (Echinocloa crus-galli [1]; 1000 g/ha) was “very good (a very good herbicidal activity is given at values of at least 85)”. For the same molecule, the herbicidal activity (Setaria viridis; 1000 g/ha) was “very good (a very good herbicidal activity is given at values of at least 85)” and the herbicidal activity (Echinocloa crus-galli [2]; 1000 g/ha) was “very good (a very good herbicidal activity is given at values of at least 85)”.
In the case of `Clc1ccccc1-c1cnc(C2CC2)nc1CC1CCCC1` [Ex. 99], the herbicidal activity (Setaria viridis; 2000 g/ha) is reported as “very good (a very good herbicidal activity is given at values of at least 85)”.
In the case of `CC(O)c1nc(C2CC2)ncc1-c1ccccc1Br` (stereo not shown) [Ex. 114], the herbicidal activity (Setaria viridis; 500 g/ha) is reported as “very good (a very good herbicidal activity is given at values of at least 85)”.
In the case of `Clc1ccccc1-c1cnc(C2CC2)nc1CC1CCOCC1` [Ex. 96], the herbicidal activity (Setaria viridis; 1000 g/ha) is reported as “very good (a very good herbicidal activity is given at values of at least 85)”.
For `CC(O)c1nc(C2CC2)ncc1-c1ccccc1Cl` (stereo not shown) [Ex. 49], the herbicidal activity (Alopecurus myosuroides; 1000 g/ha) was “very good (a very good herbicidal activity is given at values of at least 85)”, the herbicidal activity (Apera spica-venti; 1000 g/ha) was “good (A good herbicidal activity is given at values of at least 70)” and the herbicidal activity (Echinocloa crus-galli [1]; 1000 g/ha) was “good (A good herbicidal activity is given at values of at least 70)”. The herbicidal activity (Setaria viridis; 1000 g/ha) was “very good (a very good herbicidal activity is given at values of at least 85)” and the herbicidal activity (Echinocloa crus-galli [2]; 1000 g/ha) was “good (A good herbicidal activity is given at values of at least 70)”.
